Laboratory results as given in patent publication US20250376473A1, “PRMTS INHIBITOR AND USE THEREOF” (Cytosinlab Therapeutics Co., Ltd., priority 2022, published 2025).
Where two headings read alike, the source gives them in different places.

Legend:
HCT116 MTAP WT cells = assay: Proliferation inhibition of HCT116 cells in vitro (CellTiter Glo); assay type: cell-based; settings: 6 days, 9 concentrations starting from 30 μM, read-out: Cell proliferation inhibition rate HCT116 MTAP WT IC50 (nm)
Excerpt: (§1) Biological Test Example 2 Proliferation Inhibition of HCT116 and HCT116 MTAP-KO Cells in Vitro
(§2) HCT116 cell line was purchased from the Chinese Academy of Sciences Cell Bank, and the MTAP gene was knocked out by CRISPR/Cas9 technology to obtain HCT116-MTAP-KO cell line.
(§3) McCoy's 5A medium (Gibco, catalog No. 16600082), fetal bovine serum (Gibco, catalog No. 10099141C), penicillin-streptomycin double antibody (Gibco, catalog No. 15140122), pancreatic enzyme (Gibco, catalog No. 25200056), CellTiter Glo assay kit (Promega, catalog No. G7572), 384-well transparent flat-bottomed black walled cell culture plate (Corning, catalog No. 3764), ultra micro sampler (Tecan, catalog No.D300e), Multimode reader (Biotek, catalog No. SynergyHTX)
(§4) 1. Cell culture: HCT116 and HCT116-MTAP-KO cells were cultured in McCoy'5A medium+10% fetal bovine serum+1% penicillin-streptomycin double antibody; to ensure that they were always in the logarithmic growth phase and the cell viability greater than 95%.
(§5) 2. Compound concentration gradient preparation: The compound to be tested was added to a 384-well plate using an ultra micro sampler, starting from 30 μM (HCT116 cells) or 3 μM (HCT116-MTAP-KO cells), and diluted with DMSO at 3 times for a total of 9 concentrations and set up three duplicate wells.
(§6) 3. Treatment of cells with compounds: Trypsin-digested HCT116 or HCT116-MTAP-KO cell suspension was added to the 384-well plates spotted with the compounds to be tested at 40 μL per well, i.e., 100 cells per well, and the final concentration of DMSO was 0.4%. The cell culture plate was incubated at 37° C. in a 5% CO2 incubator for 6 days.
(§7) 4. Detection: 20 μL of CellTiter Glo reagent was added to each well of the cell culture plate and incubated at room temperature for 30 minutes. A multimode reader was used to detect the luminescence signal at […].
(§8) The data was fitted with GraphPad Prism 8.0 software using a four parameter inhibitor-reaction model to obtain the IC50 value (half inhibitory concentration) of the test compounds.

[1] = system: HCT116-MTAP-KO cells (HCT116 MTAP null); assay: Proliferation inhibition of HCT116 MTAP-KO cells in vitro (CellTiter Glo); assay type: cell-based; settings: 6 days, 9 concentrations starting from 3 μM, read-out: Cell proliferation inhibition rate HCT116 MTAP null IC50 (nm)
Excerpt: as §1, §2, §3, §4, §5, §6, §7, §8

Compound | IC50 (HCT116 MTAP WT cells; Homo sapiens, HCT-116, 144 h) [nM] | IC50 ([1]; HCT116-MTAP null, 144 h) [nM] | IC50 (HCT116 MTAP WT cells) [nM] | IC50 [1] [nM]
COCCN(C)c1ccc(CN(C(=O)c2cc3c(cc2F)nc(N)c2cnc(C)n23)c2ccnn2C)nc1 [Example 320] | 1000 to 10000 | 100 to 1000 | – | –
CCn1cc(N(Cc2ccc(OC3CC3)cn2)C(=O)c2cc3c(cn2)nc(N)c2cnc(C)n23)c(C)n1 [Example 199] | 1000 to 10000 | < 100 | – | –
Cc1ncc2c(N)nc3ccc(C(=O)N(Cc4ccc(C(F)(F)F)cn4)C(C)c4ncccn4)cc3n12 (stereo not shown) [Example 2] | 1000 to 10000 | 100 to 1000 | – | –
Cc1ncc2c(N)nc3cc(F)c(C(=O)N(Cc4cn5ccc(C(F)(F)F)cc5n4)c4cnn(C)c4)cc3n12 [Example 70] | 1000 to 10000 | 100 to 1000 | – | –
COc1ccc(C2COCC(C)N2C(=O)c2cc3c(cc2F)nc(N)c2c(C)ncn23)nn1 (stereo not shown) [Example 278] | 100 to 1000 | 100 to 1000 | – | –
Cc1ncc2c(N)nc3cc(F)c(C(=O)N(Cc4cnn(C5CCOCC5)c4)c4ccnn4C)cc3n12 [Example 227] | 1000 to 10000 | 100 to 1000 | – | –
Cc1ncn2c1c(N)nc1ccc(C(=O)N(Cc3nc(C4CCOCC4)cs3)CC(C)C)cc12 [Example 310] | 1000 to 10000 | < 100 | – | –
Cc1nc(C)n2c1c(N)nc1ccc(C(=O)N(Cc3ccc(C(F)(F)F)cn3)C(C)c3ncccn3)cc12 (stereo not shown) [Example 14] | – | – | 1000 to 10000 | < 100
Cc1ncc2c(N)nc3cc(F)c(C(=O)N4C(C)COCC4c4ccc(C(F)(F)F)cc4)cc3n12 (stereo not shown) [Example 275] | 1000 to 10000 | < 100 | – | –
Cc1ncn2c1c(N)nc1cc(F)c(C(=O)N3C(C)COCC3c3ccc(C4CCOCC4)cn3)cc12 (stereo not shown) [Example 112] | 1000 to 10000 | < 100 | – | –
Cc1ncn2c1c(N)nc1ccc(C(=O)N(Cc3nc(C4=CCOCC4)cs3)CC(C)C)cc12 [Example 303] | 1000 to 10000 | < 100 | – | –
CCN(Cc1nc(-c2cnn(C(F)(F)F)c2)cs1)C(=O)c1cc2c(cc1F)nc(N)c1cnc(C)n12 [Example 80] | 1000 to 10000 | 100 to 1000 | – | –
Cc1ncn2c1c(N)nc1cc(F)c(C(=O)N(c3cnn(C)c3)C3COc4ccccc43)cc12 (stereo not shown) [Example 121] | – | – | 1000 to 10000 | < 100
Cc1ncc2c(N)nc3cc(F)c(C(=O)N4C(C)COC[C@@H]4c4ncc(C(F)(F)F)cc4F)cc3n12 (stereo partly shown) [Example 34] | 1000 to 10000 | < 100 | – | –
Cc1ncc2c(N)nc3cc(F)c(C(=O)N(c4cnn(C)c4)C4COc5ccccc54)cc3n12 (stereo not shown) [Example 125] | – | – | 1000 to 10000 | < 100
CCOc1ccc(CN(CC)C(=O)c2cc3c(cc2F)nc(N)c2cnc(C)n23)nn1 [Example 102] | 1000 to 10000 | < 100 | – | –
CCN(C(=O)c1cc2c(cc1F)nc(N)c1cnc(C)n12)C1COc2cc(-c3cnn(C(F)(F)F)c3)ccc21 (stereo not shown) [Example 75] | 1000 to 10000 | 100 to 1000 | – | –
Cc1nn(C)cc1N(Cc1ccc(C(F)(F)F)cn1)C(=O)c1cc2c(cc1F)nc(N)c1c(C)ncn12 [Example 134] | < 100 | < 100 | – | –
Cc1nn(C)cc1N(Cc1ccc(C(F)(F)F)nn1)C(=O)c1cc2c(cc1F)nc(N)c1c(C)ncn12 [Example 193] | 100 to 1000 | < 100 | – | –
Cc1cnn2c1c(N)nc1ccc(C(=O)N(Cc3ccc(C(F)(F)F)cn3)C(C)c3ncccn3)cc12 (stereo not shown) [Example 315] | – | – | < 100 | < 100
CCN(Cc1cn2cc(C(F)(F)F)ccc2n1)C(=O)c1cc2c(cc1F)nc(N)c1c(C)ncn12 [Example 285] | 1000 to 10000 | < 100 | – | –
Cc1ncc2c(N)nc3cc(F)c(C(=O)N(Cc4ccc(OC5COC5)cn4)c4ccnn4C)cc3n12 [Example 217] | 1000 to 10000 | < 100 | – | –
Cc1ncc2c(N)nc3cc(F)c(C(=O)N(Cc4cnc(C5CC5)n4C)c4ccnn4C)cc3n12 [Example 318] | 1000 to 10000 | 100 to 1000 | – | –
CCN(Cc1ccc(OC2CC2)cn1)C(=O)c1cc2c(cc1F)nc(N)c1cnc(C)n12 [Example 85] | 1000 to 10000 | < 100 | – | –
Cc1ccc2c(N)nc3ccc(C(=O)N(Cc4ccc(C(F)(F)F)cn4)C(C)c4ncccn4)cc3n12 (stereo not shown) [Example 12] | 1000 to 10000 | 100 to 1000 | – | –

Continued, values first:

IC50 (HCT116 MTAP WT cells; Homo sapiens, HCT-116, 144 h) [nM] | IC50 ([1]; HCT116-MTAP null, 144 h) [nM] | IC50 (HCT116 MTAP WT cells) [nM] | IC50 [1] [nM] | Compound
100 to 1000 | < 100 | – | – | CCn1nccc1N(Cc1ccc(C(F)(F)F)cn1)C(=O)c1cc2c(cc1F)nc(N)c1cnc(C)n12 [Example 206]
1000 to 10000 | < 100 | – | – | Cc1cn(C)c(N(Cc2ccc(C(F)(F)F)cn2)C(=O)c2cc3c(cc2F)nc(N)c2cnc(C)n23)n1 [Example 210, 4-Amino-N-(1,4-dimethyl-1H-imidazol-2-yl)-7-fluoro-1-methyl-N-((5-(trifluoromethyl)pyridin-2-yl)methyl)imidazolo[1,5-a]quinoxalin-8-carboxamide]
1000 to 10000 | < 100 | – | – | Cc1ncc2c(N)nc3cc(F)c(C(=O)N(Cc4ccc(C(F)(F)F)cn4)c4cnn(C)c4)cc3n12 [Example 90]
100 to 1000 | < 100 | – | – | Cc1ncccc1N(Cc1ccc(C(F)(F)F)cn1)C(=O)c1cc2c(cc1F)nc(N)c1cnc(C)n12 [Example 143, 4-Amino-7-fluoro-1-methyl-N-(2-methylpyridin-3-yl)-N-(5-(trifluoromethyl)pyridin-2-ylmethyl)imidazolo[1,5-a]quinoxalin-8-carboxamide]
1000 to 10000 | < 100 | – | – | Cc1nn(CC(F)F)cc1N(Cc1ccc(C(F)(F)F)cn1)C(=O)c1cc2c(cc1F)nc(N)c1cnc(C)n12 [Example 173]
1000 to 10000 | 100 to 1000 | – | – | COc1ncc(N(Cc2ccc(C(F)(F)F)cn2)C(=O)c2cc3c(cc2F)nc(N)c2cnc(C)n23)cn1 [Example 148]
100 to 1000 | < 100 | – | – | Cc1ncc2c(N)nc3cc(F)c(C(=O)N(Cc4ccc(C(F)(F)F)cn4)c4c(F)cnn4C)cc3n12 [Example 201]
1000 to 10000 | < 100 | – | – | Cc1ncc2c(N)nc3cc(F)c(C(=O)N(Cc4ccc(N5CC(F)(F)C5)cn4)c4ccnn4C)cc3n12 [Example 219]
1000 to 10000 | < 100 | – | – | Cc1ncc2c(N)nc3cc(F)c(C(=O)N(Cc4ccc(C(F)(F)F)cn4)c4cn(C)nc4Cl)cc3n12 [Example 175]
1000 to 10000 | 100 to 1000 | – | – | Cc1ncc2c(N)nc3cc(F)c(C(=O)N(Cc4ccncn4)c4ccnn4C)cc3n12 [Example 232]
1000 to 10000 | 100 to 1000 | – | – | Cc1ncc2c(N)nc3cc(F)c(C(=O)N(Cc4ccc(C(F)(F)F)cn4)c4ccn(CCO)n4)cc3n12 [Example 117]
1000 to 10000 | < 100 | – | – | Cc1nn(C(C)C)cc1N(Cc1ccc(C(F)(F)F)cn1)C(=O)c1cc2c(cc1F)nc(N)c1cnc(C)n12 [Example 176]
1000 to 10000 | < 100 | – | – | CCOc1ccc(CN(C(=O)c2cc3c(cc2F)nc(N)c2cnc(C)n23)c2ccnn2C)nc1 [Example 212]
1000 to 10000 | < 100 | – | – | Cc1cc2nc(N)c3cnc(C)n3c2cc1C(=O)N(Cc1ccc(C(F)(F)F)cn1)c1cn(C)nc1C [Example 188, 4-Amino-N-(1,3-dimethyl-1H-pyrazol-4-yl)-1,7-dimethyl-N-((5-(trifluoromethyl)pyridin-2-yl)methyl)imidazolo[1,5-a]quinoxalin-8-carboxamide]
1000 to 10000 | < 100 | – | – | CCn1cc(N(Cc2ccc(C(F)(F)F)cn2)C(=O)c2cc3c(cc2F)nc(N)c2cnc(C)n23)c(C)n1 [Example 129]
1000 to 10000 | 100 to 1000 | – | – | Cc1ncc2c(N)nc3cc(F)c(C(=O)N(Cc4ccc(C(F)(F)F)cn4)c4cn(C)nc4CO)cc3n12 [Example 133]
